Measurements taken from patent US5641772A, “Condensed diazepinones, processes for preparing them and agents containing these compounds for treating diseases of the central nervous system and for promoting cerebral blood circulation” (Dr. Karl Thomae GmbH, priority 1991, dated 1997).

Assays:
[1] = molecular target: T1, M2 (Heart) muscarinic receptors (Rattus norvegicus, UniProt P10980); test: Receptor binding test, [3H]NMS, heart (M2); design: species or system Male Wistar rats; details: for Ki: in vitro, rat heart, 0.3 nM [3H]NMS, 40 minutes; for Selectivity ratio (M1 /M2): ratio of Ki M1 (cortex) to Ki M2 (heart)
T1 construct: The cerebral cortex, heart and salivary glands were removed, washed and homogenised; from tissue; host or cells: rat heart homogenate (Wistar, Chbb: THOM)
T1 sequence (P10980 1-466): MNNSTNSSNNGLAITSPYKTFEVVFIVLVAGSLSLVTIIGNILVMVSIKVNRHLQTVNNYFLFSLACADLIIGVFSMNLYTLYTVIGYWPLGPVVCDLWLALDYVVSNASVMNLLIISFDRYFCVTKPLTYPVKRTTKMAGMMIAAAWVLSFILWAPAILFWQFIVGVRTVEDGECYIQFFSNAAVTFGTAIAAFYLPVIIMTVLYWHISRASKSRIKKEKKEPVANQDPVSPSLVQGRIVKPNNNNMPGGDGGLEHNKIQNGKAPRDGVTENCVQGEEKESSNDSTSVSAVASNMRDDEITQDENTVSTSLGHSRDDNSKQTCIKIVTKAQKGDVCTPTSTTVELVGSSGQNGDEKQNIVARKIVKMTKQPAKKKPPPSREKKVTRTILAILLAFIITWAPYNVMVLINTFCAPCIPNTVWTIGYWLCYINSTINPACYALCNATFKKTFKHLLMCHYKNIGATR

[2] = molecular target: T2, M3 (Submandibular gland) muscarinic receptors (Rattus norvegicus, UniProt P08483); test: Receptor binding test, [3H]NMS, salivary (submandibular) gland (M3); design: species or system Male Wistar rats; details: in vitro, 0.3 nM [3H]NMS, 40 minutes
T2 construct: The cerebral cortex, heart and salivary glands were removed, washed and homogenised; from tissue; host or cells: rat salivary (submandibular) gland homogenate (Wistar, Chbb: THOM)
T2 sequence (P08483 whole entry): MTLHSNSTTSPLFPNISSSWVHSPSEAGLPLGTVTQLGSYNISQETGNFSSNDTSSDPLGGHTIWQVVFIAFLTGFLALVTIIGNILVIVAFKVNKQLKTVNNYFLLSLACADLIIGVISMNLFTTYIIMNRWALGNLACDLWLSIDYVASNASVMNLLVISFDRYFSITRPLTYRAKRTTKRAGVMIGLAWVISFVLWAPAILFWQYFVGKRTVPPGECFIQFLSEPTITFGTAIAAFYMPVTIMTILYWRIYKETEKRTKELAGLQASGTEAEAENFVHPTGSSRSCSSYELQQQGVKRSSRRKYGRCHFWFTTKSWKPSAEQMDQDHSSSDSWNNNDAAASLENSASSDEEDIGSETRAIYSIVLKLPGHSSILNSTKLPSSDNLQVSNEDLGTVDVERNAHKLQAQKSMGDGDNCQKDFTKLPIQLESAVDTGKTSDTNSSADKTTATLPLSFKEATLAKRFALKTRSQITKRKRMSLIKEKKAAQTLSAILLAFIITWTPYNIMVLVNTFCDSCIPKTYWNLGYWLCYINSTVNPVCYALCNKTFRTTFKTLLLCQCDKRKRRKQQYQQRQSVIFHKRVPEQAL

[3] = molecular target: T3, M1 -receptors of the cortex (Rattus norvegicus, UniProt P08482); test: Receptor binding test, [3H]pirenzepine, cerebral cortex (M1); design: species or system Male Wistar rats; details: in vitro, 1 nM [3H]pirenzepine, 90 minutes
T3 construct: The cerebral cortex, heart and salivary glands were removed, washed and homogenised; from tissue; host or cells: rat cerebral cortex homogenate (Wistar, Chbb: THOM)
T3 sequence (P08482 1-460): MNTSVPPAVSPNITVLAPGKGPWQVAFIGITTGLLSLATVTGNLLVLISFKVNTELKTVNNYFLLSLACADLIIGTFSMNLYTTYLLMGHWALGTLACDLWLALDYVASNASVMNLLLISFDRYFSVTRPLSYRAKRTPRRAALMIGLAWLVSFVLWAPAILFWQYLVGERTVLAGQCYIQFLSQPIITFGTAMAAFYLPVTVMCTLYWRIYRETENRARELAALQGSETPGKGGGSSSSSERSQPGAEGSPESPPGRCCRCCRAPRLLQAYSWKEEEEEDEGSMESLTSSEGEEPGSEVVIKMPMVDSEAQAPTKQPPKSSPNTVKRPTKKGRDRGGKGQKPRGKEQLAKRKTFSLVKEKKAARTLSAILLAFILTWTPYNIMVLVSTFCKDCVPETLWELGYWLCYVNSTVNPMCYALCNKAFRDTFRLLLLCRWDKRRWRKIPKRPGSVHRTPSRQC

[4] = test system: learning-impaired old rats; test: Effect on the memory in the Morris water maze, learning-impaired 24 months old rats; type: in vivo, rat; details: 0.2 mg/kg s.c.
Description: The tests were carried out using the water maze described by R. G. M. Morris in Learn Motive 12:239-249 (1981) using the test method described therein.
On the first day, rats which were 24 months old and therefore learning-impaired (n=7 per group) were given 0.2 mg/kg of compound D by subcutaneous route whilst another group of these animals were given physiological saline solution (s.c.).

[5] = test system: arecoline-induced increase in blood pressure; test: Arecoline test: CNS-penetration, in vivo (rat), reduction in the arecoline-induced increase in blood pressure; details: i.v.
Description: Cerebroavailable antimuscarinics block this central effect. […] The trachea is incubated, the animals are respirated with an air/oxygen mixture (80 breaths per minute). The blood pressure is recorded after canulation of the carotid artery by means of a pressure recorder (Bell and Howell Type 4-327-I). The test substances are administered through the jugular vein ([…]). […] The arecoline is administered (in doses of 0.3 mg/kg) at 15 minute intervals. After 2 comparison values, the test substance is injected in increasing doses 5 minutes before the next administration of arecoline. The results obtained were compared with the average starting values and determined as the percentage inhibition.

[6] = test system: learning ability and memory performance; details: Hunter et al., Sutherland et al., Wishaw; cited from earlier work

Compound	Selectivity ratio (M1 /M2) [1]	other results
CCN(CC)CC1CCCCN1CC(=O)N1c2cc(Cl)ccc2C(=O)Nc2cccnc21 (racemic) [Substance K, (±)-9-chloro-11-[[2-[(diethylamino)methyl]-1-piperidinyl]-acetyl]-5,11-dihydro-6H-pyrido[2,3-b]-[1,4]benzodiazepin-6-one]	–	Ki [1]: 25 nM; Ki [2]: 759 nM; Ki [3]: 126 nM
CCN(CCCC1CCN(CC(=O)N2c3ccccc3C(=O)Nc3cccnc32)CC1)C(=O)C(C)(C)CC [Substance A, 5,11-dihydro-11-[[4-[3-[(2,2-dimethyl-1-oxobutyl]-ethylamino]-propyl]-1-piperidinyl]acetyl]-6H-pyrido[2,3-b][1,4]benzodiazepin-6-one]	20	–
CCCC(C)(C)C(=O)N(CC)CCCC1CCN(CC(=O)N2c3ccccc3C(=O)Nc3cccnc32)CC1 [Substance B, 5,11-dihydro-[[4-[3-[(2,2-dimethyl-1-oxopentyl)-ethylamino]-propyl]-1-piperidinyl]acetyl]-6H-pyrido[2,3-b][1,4]benzodiazepin-6-one]	10	–
CCCC(C)(C)C(=O)N(CC)CCCCC1CCN(CC(=O)N2c3ccccc3C(=O)Nc3cccnc32)CC1 [Substance C, 5,11-dihydro-11-[[4-[4-[(2,2-dimethyl-1-oxopentyl)-ethylamino]butyl]-1-piperidinyl]acetyl]-6H-pyrido[2,3-b][1,4]benzodiazepin-6-one]	13	–
CCCC(C)(C)C(=O)N(CC)CCCC1CCN(CC(=O)N2c3ccc(Cl)cc3C(=O)Nc3cccnc32)CC1 [Substance D, 5,11-dihydro-8-chloro-11-[[4-[3-[(2,2-dimethyl-1-oxopentyl)-ethylamino]propyl]-1-piperidinyl]-acetyl]-6H-pyrido[2,3-b][1,4]benzodiazepin-6-one]	35	memory performance versus young control rats ([4]; fourth day, 24 months old rats, n=7): reached the same level as the control groups of young rats; memory performance compared with saline-treated learning-impaired old rats ([4]; observed 4 days, FIG. 1): improved memory performance; reduction of latency period in Morris water maze ([4]; second day, 24 months old rats, n=7): approximately 50%
CCN(CCCC1CCN(CC(=O)N2c3ccc(C)cc3C(=O)Nc3cccnc32)CC1)C(=O)C(C)(C)C [Substance E, 5,11-dihydro-8-methyl-11-[[4-[3-[(2,2-dimethyl-1-oxopropyl)-ethylamino]propyl]-1-piperidinyl]acetyl]-6H-pyrido[2,3-b][,1,4]benzodiazepin-6-one]	10	–
CCN(CCCC1CCN(CC(=O)N2c3ccccc3C(=O)Nc3cccnc32)CC1)C(=O)C(C)(C)C [Substance F, 5,11-dihydro-11-[[4-[3-[(2,2-dimethyl-1-oxopropyl)-ethylamino]propyl]-1-piperidinyl]acetyl]-6H-pyrido[2,3-b][1,4]benzodiazepin-6-one]	14	–
CCN(CCCC1CCN(CC(=O)N2c3ccc(C)cc3C(=O)Nc3cccnc32)CC1)C(=O)C(C)(C)CC [Substance G, 5,11-dihydro-8-methyl-11-[[4-[3-[(2,2-dimethyl-1-oxobutyl)ethylamino]propyl]-1-piperidinyl]acetyl]-6H-pyrido[2,3-b][1,4]benzodiazepin-6-one]	24	–
CCN(CC)CC1CCCCN1CC(=O)N1c2ccccc2C(=O)Nc2cccnc21 (centres unmarked) [Substance H, 11-[[2-[(diethylamino)methyl]-1-piperidinyl]acetyl]-5,11-dihydro-6H-pyrido[2,3-b][1,4]benzodiazepin-6-one]	–	Ki [1]: 79 nM; Ki [3]: 500 nM
O=C1Nc2cccnc2N(C(=O)CCC#CCN2CCCCC2)c2ccccc21 [Substance J, 5,11-dihydro-11-[1-oxo-6-(1-piperidinyl)-4-hexyn-1-yl]-6H-pyrido[2,3-b][1,4]benzodiazepin-6-one]	6.6	–
CCCN(CCC)CC1CCCCN1CCNC(=O)N1c2ccccc2C(=O)Nc2cccnc21.CS(=O)(=O)O (centres unmarked) [Substance L, 5,11-dihydro-11-[[[2-[2-[(dipropylamino)methyl]-1-piperidinyl]ethyl]amino]carbonyl]-6H-pyrido[2,3-b]-[1,4]benzodiazepin-6-one methanesulphonate]	–	effect on arecoline-mediated central effects / increase in blood pressure (in words) [5]: had no effect on the increase in blood pressure caused by arecoline
O=C1Nc2cccnc2N(C(=O)N2CCCC(CCCN3CCCCC3)C2)c2ccccc21 (centres unmarked) [Substance M, 5,11-dihydro-11-[[3-[3-(1-piperidinyl)-1-propyl]-1-piperidinyl]carbonyl]-6H-pyrido[2,3-b][1,4]benzo-diazepin-6-one]	6.5	–
Cc1scc2c1N(C(=O)CCC#CCN1CCCCCC1)c1ccccc1NC2=O [Substance P, 4,9-dihydro-3-methyl-4-[6-(hexahydro-1H-1-azepinyl)-1-oxo-4-hexyn-1-yl]-10H-thieno[3,4-b][1,5]benzodi-azepin-10-one]	4.6	–
CCN(CC)CC1COCCN1CCCC(=O)N1c2ccccc2C(=O)Nc2cccnc21 (centres unmarked) [Substance Q, 11-[4-[3-[(diethylamino)methyl]-4-morpholinyl]-1-oxo-1-butyl]-5,11-dihydro-6H-pyrido[2,3-b][1,4]-benzodiazepin-6-one]	2.5	–
CN(CCC1CCCN1C)CC(=O)N1c2ccccc2C(=O)Nc2cccnc21 (centres unmarked) [Substance R, 5,11-dihydro-11-[[[2-(1-methyl-2-pyrrolidinyl)-ethyl]-methylamino]acetyl]-6H-pyrido[2,3-b][1,4]-benzodiazepin-6-one]	2.4	–
CN(CCC1CCCCCN1C)CC(=O)N1c2ccccc2C(=O)Nc2cccnc21 (centres unmarked) [Substance S, 5,11-dihydro-11-[[[2-(1-methyl-hexahydro-1H-2-azepinyl)-ethyl]methylamino]acetyl]-6H-pyrido[2,3-b][1,4]benzodiazepin-6-one]	5.3	–
CN1CCN(CC(=O)N2c3ccccc3C(=O)Nc3cccnc32)CC1 [pirenzepine]	–	learning ability and memory performance (literature) [6]: deterioration in learning ability and memory performance
